The nature of this data set: Solubility of pamoate salt, HPLC determination of concentration in supernatant. The class given is physicochemical. The procedure: The solubility of pamoate salt of Example 1 was determined by mixing the peptide in water or PBS, followed by HPLC determination of the concentration in the supernatant, and the results are shown in Table 4B.

In patent publication US9314509B2, “Pharmaceutical compositions of melanocortin receptor ligands” (Ipsen Pharma S.A.S., priority 2009, dated 2016) one finds solubility data, which are given here for 1 compound.

In general, solubility refers to how much of the substance goes into solution per volume.

Molecules are shown by their SMILES. Where a name gives a salt, the structure may show the parent alone. Read-outs that look alike come from different tables or passages of the source.

For `CC(=O)N[C@@H](CCCNC(=N)N)C(=O)N[C@H]1CSSC[C@@H](C(N)=O)NC(=O)[C@H](Cc2c[nH]c3ccccc23)NC(=O)[C@H](CCCNC(=N)N)NC(=O)[C@@H](Cc2ccccc2)NC(=O)[C@H](Cc2c[nH]cn2)NC(=O)[C@@H](C)NC1=O` [Pamoate salt of Example 1 with Zn], the solubility came out at 0.12 mg/mL (PBS, pH 7.4, read-out: Solubility in PBS, pH 7.4) and 0.05 mg/mL (Water, pH 7.0, read-out: Solubility in Water, pH 7.0).
